Source: patent US20220041532A1, “HYDROFLUOROOLEFINS AND METHODS OF USING SAME” (3M INNOVATIVE PROPERTIES COMPANY, priority 2018, published 2022)

Legend:
[1] = Largest Soluble Hydrocarbon (LSH) test; format: physicochemical; settings: hydrofluoroolefin:hydrocarbon about 1:1 to 1:2 by weight
Description: Largest Soluble Hydrocarbon (LSH): The LSH of each hydrofluoroolefin compound was determined by mixing the compound with hydrocarbons of varying molecular weight (CnH2n+2, where n=9 to 24) in a hydrofluoroolefin:hydrocarbon ratio of about 1:1 to 1:2 by weight at room temperature (25° C.) and at 50° C. […] A larger value of n is interpreted herein to indicate a greater ability of the hydrofluoroolefin to clean hydrocarbons.
The results presented in Table 2 indicate that the hydrofluoroolefins of the present invention are highly suitable fluids for cleaning applications.

[2] = Atmospheric lifetime from rates of reaction with hydroxyl radicals; format: physicochemical; settings: Degrades by direct photolysis and ozonolysis; value stated as 'Likely'
Description: Atmospheric lifetime: The atmospheric lifetimes of hydrobromofluoroolefin Examples 1-3 were determined from their rates of reaction with hydroxyl radicals. The pseudo-first order rate for the reaction of the gaseous hydrobromofluoroolefin with hydroxyl radical was measured in a series of experiments relative to reference compounds such as chloromethane and ethane. The measurements were performed in a 5.7 L, heated FTIR gas cell equipped with a polished semiconductor-grade quartz window. An Oriel Instruments UV Lamp, Model 66921 equipped with a 480W mercury-xenon bulb was used to generate hydroxyl radicals by photolyzing ozone in the presence of water vapor. The concentrations of the hydrobromofluoroolefin and the reference compound were measured as a function of reaction time using an I-Series FTIR from Midac Corporation. The atmospheric lifetime was calculated from the reaction rates for the hydrobromofluoroolefin relative to the reference compounds and the reported lifetime of the reference compounds as shown below:
where τx is the atmospheric lifetime of hydrobromofluoroolefin, τr is the atmospheric lifetime of the reference compound, and kx and kr are the rate constants for the reaction of hydroxyl radical with hydrobromofluoroolefin and the reference compound, respectively.
The atmospheric lifetimes of Examples 1-3 were determined from their rates of reaction with hydroxyl radicals as described above and are reported in Table 3.

[3] = 25° C., longest hydrocarbon compatible without haze
[4] = 50° C., >23 = miscible with C23H48 without haze

SMILES | LSH (n in CnH2n+2) [1, 3] | LSH (n in CnH2n+2) [1, 4] | Atmospheric Lifetime [2]
FC(=CCl)C(F)(F)C(F)(F)C(F)(F)F [Example 5, 1-chloro-2,3,3,4,4,5,5,5-pent-1-ene] | 17 | 22 | 
FC(=CCl)C(F)OC(F)(F)F (stereo not drawn) [Example 11, 1-chloro-2,3-difluoro-3-(trifluoromethoxy)prop-1-ene] | 18 | >23 | 
FC(=CCl)C(F)(F)C(F)(F)F [Example 6, 1-chloro-2,3,3,4,4,4-but-1-ene] | 19 |  | 
FC(=CCl)C(F)(F)N(C(F)(F)F)C(F)(F)C(F)(F)F [Example 9, 3-chloro-1,1,2-trifluoro-N-(1,1,2,2,2-pentafluoroethyl)-N-(trifluoromethyl)prop-2-en-1-amine] | 13 | 17 | 
FC(=CBr)C(F)(F)C(F)(F)F [Example 2, 1-bromo-2,3,3,4,4,4-hexafluorobut-1-ene] | 19 | >23 | ozonolysis. Likely <0.05 years
FC(=CBr)C(F)(F)F [Example 1, 1-bromo-2,3,3,3-tetrafluoroprop-1-ene] | 19 | >23 | ozonolysis. Likely <0.05 years
FC(=CCl)C(F)C(F)(F)F (stereo not drawn) [Example 10, 1-chloro-2,3,4,4,4-pentafluoro-but-1-ene] | 19 | >23 | 
FC(=CCl)N1C(F)(F)C(F)(F)OC(F)(F)C1(F)F [Example 8, 4-(2-chloro-1-fluoro-vinyl)-2,2,3,3,5,5,6,6-octafluoro-morpholine] | 14 | 18 | 
FC(=CBr)C(F)F [Example 3, 1-bromo-2,3,3-trifluoroprop-1-ene] | 19 | >23 | ozonolysis. Likely <0.05 years
FC(=CBr)C(F)(F)C(F)(F)C(F)F [Example 4, I-bromo-2,3,3,4,4,5,5-heptafluoropent-1-ene] | 19 | >23 | 
FC(=CCl)C(F)(F)OC(F)(F)F [Example 7, 1-chloro-2,3,3-trifluoro-3-(trifluoromethoxy)prop-1-ene] | 19 | >23 | 
